Reference: patent US8362070B2, “Application of puerarin in the preparation of P2X3 mediated drugs for pain/nervous system diseases” (Nanchang University, priority 2009, dated 2013)

What was measured:
Assay type in all cases: in vivo, rat
P2X3 receptor mRNA = experiment: In situ hybridization of P2X3 receptor mRNA in dorsal root ganglion of CCI rats; conditions: L4/L5 DRG
P2X3 mRNA = experiment: In situ hybridization of P2X3 mRNA in dorsal root ganglion of burn rats; conditions: n=10
Description: SD rats (their body weights were 200±20 g) were randomly divided into the group I (sham back burn), the group II (Puerarin, intraperitoneal injection), the group III (superficial second degree back burn), the group IV (superficial second degree back burn+puerarin), the group V (control) and the group VI (superficial second degree back burn+Indocin). The rats in the group IV (superficial second degree back burn+puerarin) were subjected to intraperitoneal injection of Puerarin (100 mg/kg) everyday for continuous three days 30 minutes before and after burn. The rats in the group VI (superficial second degree back burn+Indocin) were subjected to intraperitoneal injection of idomethine (4 mg/kg/d) everyday for continuous three days 30 minutes before burn and after burn. Results of in situ hybridization were subjected to analysis by using Hmias-2000 high-resolution color medical image analysis system for the detection of P2X3 receptor expression in dorsal root ganglion (DRG) in burn position of rats.

P2X3 receptor [1] = experiment: Immunohistochemistry of P2X3 receptor expression in dorsal root ganglion of CCI rats; conditions: L4/L5 DRG
[2] = system: rats that suffer from superficial second degree foot burn; experiment: Thermal hyperalgesia (thermal withdrawal latency) in rats with foot burn; conditions: for thermal withdrawal latency (TWL) in comparison to group III (burn) / thermal withdrawal latency (TWL) after 144 hours: superficial second degree foot burn + drug; for thermal withdrawal latency (TWL) in comparison to group III (burn): 24 hours after burn, p<0.01
Description: Male SD rats, 220-250 g, 60 rats were included, which were provided by the Department of Experimental Animals from the Medical College of Nanchang University, and the animals were divided into different groups at random. Group I was the group of sham burn in skin of feet; group II was the group of puerarin injection+first degree or superficial second degree burn in skin of feet; group III was the group of physiological saline+first degree or superficial second degree burn in skin of feet; group IV was the group of sham burn in skin of back; group V was the group of puerarin injection+first degree or superficial second degree burn in skin of back; group VI was the group of physiological saline+first degree or superficial second degree burn in skin of back. Puerarin injection was dissolved in physiological saline and the concentration was 50 mg/mL. vena caudalis injection of 4 mL/kg physiological saline was carried out for the rats in group III and […] 0.5 h before burn, and the injection was carried out once a day until the termination of the test; […], and the injection was carried out once a day until the termination of the test; skin of feet or back of the rats from group I and group IV (the sham burn group) were immersed in warm water of 37° C. for 8 seconds.
After the rats were anesthetized by ether, their right posterior feet were immersed in hot water of 70° C. for 5 seconds or 8 seconds, then they were raised in separate cages after burn. The mechanical withdrawal threshold and the thermal withdrawal threshold in their right posterior feet were measured respectively before burn (Oh) and 1, 24, 48, 72, 96, 120, 144 hours after burn (the room temperature was maintained at 22±0.5° C.).
The organic glass box was placed on a glass plate of 3 mm thick and BME-410C type automatic thermalgia stimulator was used to irradiate the footplates of rats. The time for the appearance of leg withdrawal after the irradiation on footplates of rats by using the thermal radiation stimulator was considered as the thermal withdrawal latency (TWL). The time for cutting off was 25 seconds in order to prevent burn on tissues.
(§1) The organic glass box was placed on a glass plate of 3 mm thick and BME-410C type automatic thermalgia stimulator (Institute of Biomedical Engineering, Chinese Academy of Medical Sciences) was used to irrdiate the footplates of rats. The time for the appearance of leg withdrawal after the irradiation on footplates of rats by using the thermal radiation stimulator was considered as the thermal withdrawal latency. The time for cutting off was 30 seconds in order to prevent burn on tissues.

[3] = system: rats that suffer from neuropathic pain (chronic constriction injury of sciatic nerve); experiment: Thermal hyperalgesia (thermal withdrawal latency) in rats with neuropathic pain (CCI); conditions: for thermal withdrawal latency (TWL) in comparison with group III (CCI): CCI rats, puerarin i.p. 50 mg/mL, 4 mL/kg daily, idomethine 4 mg/kg/d i.p. (seven days after ligation), p<0.01
Description: Male SD rats, 220-250 g were provided by the Department of Experimental Animals from the Medical College of Nanchang University. The rats were divided into […] at random and 12 rats were included in each group. Experimental grouping: I (sham); II (puerarin); III (chronic constriction injuries, CCI); IV (CCI+puerarin); V (control); VI (CCI+Indo). The puerarin injection was dissolved in physiological saline and the concentration was 50 mg/mL. Group I were subjected to intraperitoneal injection of physiological saline (4 mL/kg); Group II were subjected to intraperitoneal injection of puerarin injection (4 mL/kg); Skins of the […] were cut open and their sciatic nerves were exposed, then their skin was sew up without ligating nerves. Group IV were subjected to intraperitoneal injection of puerarin injection (4 mL/kg) everyday on the first day after CCI operation. Intraperitoneal injection of idomethine (4 mg/kg/d) was carried out on the rats in […] half an hour before the operation and after the operation everyday, and the injection was carried out once a day until the test was finished.
Thiopental sodium was used to anesthetize the rats (30 mg/kg, intraperitoneal injection), and the skin in the outer side of right thighs of the rats was cut open under sterile conditions, and blunt dissection was carried out to isolate the sciatic nerves, then the sciatic nerves were slightly ligated with 4-0 chromicized catgut and four ligations were carried out in total, and an interval of about 1 mm was left between two knots. […] The rats were raised in separate cages after the operation, and mechanical withdrawal threshold and thermal withdrawal latency were determined before the operation (0 d) and 1, 3, 5, 7, 9, 11, 14 days after the operations respectively (Time for the determination is set at 10[…]00-14[…]100 everyday, and the room temperature was maintained at 22±0.5° C.).
as §1, with “irradiate” for “irrdiate”, “latency (TWL).” for “latency.”

P2X3 receptor [4] = experiment: Immunohistochemical analysis of P2X3 expression in dorsal root ganglion of burn rats; conditions: n=10
Description: SD rats (their body weights were 200±20 g) were randomly divided into the group I (sham back burn), the group II (Puerarin, intraperitoneal injection), the group III (superficial second degree back burn), the group IV (superficial second degree back burn+puerarin), the group V (control) and the group VI (superficial second degree back burn+Indocin). The rats in the group IV (superficial second degree back burn+puerarin) were subjected to intraperitoneal injection of puerarin (100 mg/kg) everyday for continuous three days 30 minutes before burn and after burn. Immunohistochemical analysis was used to detect the change in P2X3 expression in dorsal root ganglion in burn position of rats. Results of immunohistochemical analysis were subjected to analysis by using Hmias-2000 high-resolution color medical image analysis system.

[5] = CCI rats + drug, 14 days after operation, CCI 1.33±0.02, control 0.82±0.02
[6] = superficial second degree back burn + drug (puerarin 100 mg/kg i.p., idomethine 4 mg/kg/d i.p., three days), burn 1.15±0.04, control 0.99±0.02
[7] = CCI rats + drug, 14 days after operation, CCI 1.64±0.05, control 1.15±0.03
[8] = superficial second degree back burn + drug (puerarin 100 mg/kg i.p. three days), burn 1.21±0.04, control 1.03±0.02
[9] = puerarin alone, no CCI, 14 days

Structure (SMILES)	average optical density of P2X3 positive neurons (P2X3 receptor mRNA, in situ hybridization) (P2X3 receptor mRNA; [5])	average optical density (P2X3 mRNA, in situ hybridization, DRG) (P2X3 mRNA; [6])	average optical density of P2X3 positive neurons (P2X3 receptor, immunohistochemistry) (P2X3 receptor [1]; [7])	thermal withdrawal latency (TWL) in comparison to group III (burn) [2]	thermal withdrawal latency (TWL) after 144 hours ([2]; p>0.05)	thermal withdrawal latency (TWL) in comparison with group III (CCI) [3]	average optical density (P2X3 expression, immunohistochemistry, DRG) (P2X3 receptor [4]; [8])	average optical density of P2X3 positive neurons (P2X3 receptor mRNA, in situ hybridization) (P2X3 receptor mRNA; [9])	average optical density (P2X3 mRNA, in situ hybridization, DRG) (P2X3 mRNA; puerarin alone i.p., no burn)	average optical density of P2X3 positive neurons (P2X3 receptor, immunohistochemistry) (P2X3 receptor [1]; [9])	thermal withdrawal latency, comparison among sham, puerarin alone and control ([2]; puerarin alone i.p., no burn, p>0.05)	thermal withdrawal latency, difference from group V (control) after 14 days ([3]; CCI rats + puerarin, 14 days, p>0.05)	thermal withdrawal latency, difference among sham, puerarin alone and control ([3]; puerarin alone, no CCI, p>0.05)	average optical density (P2X3 expression, immunohistochemistry, DRG) (P2X3 receptor [4]; puerarin alone i.p., no burn)
COc1ccc2c(c1)c(CC(=O)O)c(C)n2C(=O)c1ccc(Cl)cc1 [Indocin, Indometacin]	1.14±0.01	1.06±0.05	1.34±0.04	significantly increased	almost recovered to normal level	increased	1.16±0.03	–	–	–	–	–	–	–
O=c1c(-c2ccc(O)cc2)coc2c([C@@H]3O[C@H](CO)[C@@H](O)[C@H](O)[C@H]3O)c(O)ccc12 [puerarin]	0.98±0.05	1.01±0.03	1.28±0.04	significantly increased	almost recovered to normal level	significantly increased	1.10±0.02	0.82±0.03	0.97±0.01	1.07±0.03	no significant difference	not statistically significant	not significant	1.01±0.02
